Results from patent US20260209203A1, “Heterocyclic Compounds as Modulators of S1P5” (Celgene Corporation, priority 2022, published 2026).

target: S1P5 (Homo sapiens, UniProt Q9H228); experiment: [35S]-GTPγS functional binding assay on CHO-S1P5 membranes; assay type: biochemical; conditions: membranes of CHO cells expressing recombinant S1P5; measure of S1P5 agonism
Method: CHO cells expressing recombinant S1P5 receptors were cultured in 500 cm^2 culture trays and, once confluent, rinsed and detached with cell-lifting buffer (10 mM HEPES, 154 mM NaCl, 6.85 mM EDTA, pH 7.4). Cells were then pelleted by centrifugation, resuspended, and homogenized in membrane preparation buffer (10 mM HEPES and 10 mM EDTA, pH 7.4) using a Polytron PT 1200E homogenizer (Kinematica, Luzern, Switzerland). Cellular proteins were pelleted by centrifugation at 48,000×g at 4° C. for 30 minutes. The resulting supernatant was discarded, and the pellet was re-suspended again in membrane preparation buffer, homogenized for a second time, and then centrifuged again as described above. The final cellular protein pellet was suspended in ice cold resuspension buffer (10 mM HEPES and 0.1 mM EDTA, pH 7.4), divided into aliquots, and stored at −80° C. until use.
Functional binding assays for [^35S]-GTPγS were performed in 96-well non-binding surface plates with a final volume of 200 μL. The test compounds were serially diluted in DMSO and added to assay plates using a Tecan D300E digital printer with a total volume of 0.4 μL. The control sphingosine-1-phosphate (S1P) was prepared separately by preparing a 400 μM stock solution from a 100 nmol pellet of SIP in 10 mM Na2CO3 with 2% β-cyclodextrin. The serial dilution of S1P was done using complete assay buffer (20 mM HEPES, 10 mM MgCl2, 100 mM NaCl, 1 mM EDTA, 0.1% fatty acid free bovine serum albumin (BSA), and 30 μg/mL saponin, pH 7.4) and transferred to wells already containing 0.4 μL DMSO. All the wells were then loaded to a total volume of 40 μL of complete assay buffer, except the non-specific binding (NSB) wells. For NSB wells, 40 μL/well of 50 μM GTPγS (Sigma Aldrich, cat #G8634, St. Louis, MO) was added to wells containing 0.4 μL of DMSO. The assay was started by the addition of 120 μL/well of CHO—S1P receptor membrane solution containing 40 μg/mL of membrane protein, 16.67 μM guanosine diphosphate (GDP; Sigma Aldrich, cat #G7127, St. Louis, MO), and 2.5 mg/mL of WGA PVT SPA beads in complete buffer. Assay plates were then sealed and incubated at room temperature with gentle agitation for 30 minutes. Next, 40 μL/well of 1 nM of [^35S]-GTPγS (PerkinElmer, cat #NEG030X250UC, Waltham, MA) in basic assay buffer (20 mM HEPES, 10 mM MgCl2, 100 mM NaCl, and 1 mM EDTA, pH7.4) was added to the assay plates to yield a final concentration of 200 pM and the plates were further incubated for 40 minutes at room temperature with gentle agitation. The assay was terminated by centrifugation of the plates at 1000 rpm for 3 minutes using an Eppendorf 5810R centrifuge (Eppendorf, Hamburg, Germany) and G protein bound radioactivity was quantitated using a MicroBeta2 microplate scintillation counter (PerkinElmer, Waltham, MA). As G protein bound radioactivity directly correlates to receptor activation and coupling to the G protein, this assay is a measure of S1P5 agonism.

Chain of S1P5 (Q9H228 whole entry, species assumed): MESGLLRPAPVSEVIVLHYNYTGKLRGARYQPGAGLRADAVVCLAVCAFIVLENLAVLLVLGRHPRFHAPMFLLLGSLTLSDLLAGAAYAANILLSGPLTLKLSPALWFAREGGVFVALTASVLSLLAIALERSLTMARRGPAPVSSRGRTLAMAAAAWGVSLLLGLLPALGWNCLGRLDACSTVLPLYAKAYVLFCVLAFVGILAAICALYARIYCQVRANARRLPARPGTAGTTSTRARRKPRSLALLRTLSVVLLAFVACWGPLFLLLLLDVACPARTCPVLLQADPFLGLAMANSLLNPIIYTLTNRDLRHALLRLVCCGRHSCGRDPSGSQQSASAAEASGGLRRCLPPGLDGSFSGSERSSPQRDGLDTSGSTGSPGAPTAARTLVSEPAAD

EC50 [nM] | Compound
1 to 10 | CNC(=O)C1CCN(Cc2c(C)cc(C3CN(c4c(Cl)cccc4Cl)C3)cc2C)CC1 [Compound 1, 1-(4-(1-(2,6-dichlorophenyl)-azetidin-3-yl)-2,6-dimethyl-benzyl)-N-methylpiperidine-4-carboxamide]
1 to 10 | Cc1cc(C2CN(c3c(Cl)cccc3Cl)C2)cc(C)c1CN1CCC(C(=O)N(C)C)CC1 [Compound 2, 1-(4-(1-(2,6-dichlorophenyl)-azetidin-3-yl)-2,6-dimethyl-benzyl)-N,N-dimethylpiper-idine-4-carboxamide]
1 to 10 | COCCNC(=O)C1CCN(Cc2c(C)cc(C3CN(c4c(Cl)cccc4Cl)C3)cc2C)CC1 [Compound 3, 1-(4-(1-(2,6-dichlorophenyl)-azetidin-3-yl)-2,6-dimethyl-benzyl)-N-(2-methoxyethyl)-piperidine-4-carboxamide]
10 to 100 | Cc1cc(C2CN(c3c(Cl)cccc3Cl)C2)cc(C)c1CN1CCC(C(=O)NC2CC2)CC1 [Compound 4, N-cyclopropyl-1-(4-(1-(2,6-dichlorophenyl)-azetidin-3-yl)-2,6-dimethylbenzyl)-piperidine-4-carboxamide]
10 to 100 | Cc1cc(C2CN(c3c(Cl)cccc3Cl)C2)cc(C)c1CN1CCC(C(=O)NCC2CC2)CC1 [Compound 5, N-(cyclopropylmethyl)-1-(4-(1-(2,6-dichlorophenyl)-azetidin-3-yl)-2,6-dimethyl-benzyl)piperidine-4-carbox-amide]
10 to 100 | Cc1cc(C2CN(c3c(Cl)cccc3Cl)C2)cc(C)c1CN1CCC(C(=O)NC2CCC2)CC1 [Compound 6, N-cyclobutyl-1-(4-(1-(2,6-dichlorophenyl)azetidin-3-yl)-2,6-dimethylbenzyl)-piperidine-4-carboxamide]
100 to 1000 | Cc1cc(C2CN(c3c(Cl)cccc3Cl)C2)cc(C)c1CN1CCC(C(=O)NC2CCC(O)CC2)CC1 (centres unmarked) [Compound 7, 1-(4-(1-(2,6-dichlorophenyl)-azetidin-3-yl)-2,6-dimethyl-benzyl)-N-(4-hydroxycyclo-hexyl)-piperidine-4-carbox-amide]
100 to 1000 | Cc1cc(C2CN(c3c(Cl)cccc3Cl)C2)cc(C)c1CN1CCC(C(=O)N2CCN(C)CC2)CC1 [Compound 8, (1-(4-(1-(2,6-dichlorophen-yl)azetidin-3-yl)-2,6-dimeth-ylbenzyl)-piperidin-4-yl)(4-methyl-piperazin-1-yl)-methanone]
100 to 1000 | Cc1cc(C2CN(c3c(Cl)cccc3Cl)C2)cc(C)c1CN1CCC(C(=O)N2CCOCC2)CC1 [Compound 9, (1-(4-(1-(2,6-dichlorophen-yl)azetidin-3-yl)-2,6-dimeth-ylbenzyl)-piperidin-4-yl)-(morpholino)methanone]
100 to 1000 | Cc1cc(C2CN(c3c(Cl)cccc3Cl)C2)cc(C)c1CN1CCC(C(=O)NCC(C)C)CC1 [Compound 10, 1-(4-(1-(2,6-dichlorophenyl)-azetidin-3-yl)-2,6-dimethyl-benzyl)-N-isobutylpiperidine-4-carboxamide]
100 to 1000 | Cc1cc(C2CN(c3c(Cl)cccc3Cl)C2)cc(C)c1CN1CCC(C(=O)N(C)CCO)CC1 [Compound 11, 1-(4-(1-(2,6-dichlorophenyl)-azetidin-3-yl)-2,6-dimethyl-benzyl)-N-(2-hydroxyethyl)-N-methylpiperidine-4-carbox-amide]
100 to 1000 | Cc1cc(C2CN(c3c(Cl)cccc3Cl)C2)cc(C)c1CN1CCC(C(=O)N2CCC(O)CC2)CC1 [Compound 12, (1-(4-(1-(2,6-dichlorophenyl)-azetidin-3-yl)-2,6-dimethyl-benzyl)-piperidin-4-yl)(4-hydroxy-piperidin-1-yl)-methanone]
100 to 1000 | Cc1cc(C2CN(c3c(Cl)cccc3Cl)C2)cc(C)c1CN1CCC(C(=O)N(C)CCN(C)C)CC1 [Compound 13, 1-(4-(1-(2,6-dichlorophenyl)-azetidin-3-yl)-2,6-dimethyl-benzyl)-N-(2-(dimethyl-amino)ethyl)-N-methylpiper-idine-4-carboxamide]
100 to 1000 | COC1CCN(C(=O)C2CCN(Cc3c(C)cc(C4CN(c5c(Cl)cccc5Cl)C4)cc3C)CC2)CC1 [Compound 14, (1-(4-(1-(2,6-dichlorophenyl)-azetidin-3-yl)-2,6-dimethyl-benzyl)-piperidin-4-yl)(4-methoxy-piperidin-1-yl)-methanone]
1000 to 10000 | Cc1cc(C2CN(c3c(Cl)cccc3Cl)C2)cc(C)c1CN1CCC(C(=O)NC2CCCC2)CC1 [Compound 15, N-cyclopentyl-1-(4-(1-(2,6-dichlorophenyl)-azetidin-3-yl)-2,6-dimethylbenzyl)-piperidine-4-carboxamide]
1000 to 10000 | Cc1cc(C2CN(c3c(Cl)cccc3Cl)C2)cc(C)c1CN1CCC(C(=O)N(C)C(C)C)CC1 [Compound 16, 1-(4-(1-(2,6-dichlorophenyl)-azetidin-3-yl)-2,6-dimethyl-benzyl)-N-isopropyl-N-meth-yl-piperidine-4-carboxamide]
1000 to 10000 | Cc1cc(C2CN(c3c(Cl)cccc3Cl)C2)cc(C)c1CN1CCC(C(=O)NC2CCCCC2)CC1 [Compound 17, N-cyclohexyl-1-(4-(1-(2,6-dichlorophenyl)azetidin-3-yl)-2,6-dimethylbenzyl)-piperidine-4-carboxamide]
1000 to 10000 | Cc1cc(C2CN(c3c(Cl)cccc3Cl)C2)cc(C)c1CN1CCC(C(=O)NCC2CCCCC2)CC1 [Compound 18, N-(cyclohexylmethyl)-1-(4-(1-(2,6-dichlorophenyl)-azetidin-3-yl)-2,6-dimethyl-benzyl)piperidine-4-carbox-amide]
1000 to 10000 | Cc1cc(C2CN(c3c(Cl)cccc3Cl)C2)cc(C)c1CN1CCC(C(=O)NCCN2CCCC2)CC1 [Compound 19, 1-(4-(1-(2,6-dichlorophenyl)-azetidin-3-yl)-2,6-dimethyl-benzyl)-N-(2-(pyrrolidin-1-yl)ethyl)-piperidine-4-carbox-amide]
1000 to 10000 | Cc1cc(C2CN(c3c(Cl)cccc3Cl)C2)cc(C)c1CN1CCC(C(=O)NC2CCC(N(C)C)CC2)CC1 (centres unmarked) [Compound 20, 1-(4-(1-(2,6-dichlorophenyl)-azetidin-3-yl)-2,6-dimethyl-benzyl)-N-(4-(dimethyl-amino)-cyclohexyl)piper-idine-4-carboxamide]
1000 to 10000 | Cc1cc(C2CN(c3c(Cl)cccc3Cl)C2)cc(C)c1CN1CCC(C(=O)NCCC(C)C)CC1 [Compound 21, 1-(4-(1-(2,6-dichlorophenyl)-azetidin-3-yl)-2,6-dimethyl-benzyl)-N-isopentyl-piper-idine-4-carboxamide]
1000 to 10000 | Cc1cc(C2CN(c3c(Cl)cccc3Cl)C2)cc(C)c1CN1CCC(C(=O)N2CCC(N(C)C)CC2)CC1 [Compound 22, (1-(4-(1-(2,6-dichlorophenyl)-azetidin-3-yl)-2,6-dimethyl-benzyl)piperidin-4-yl)(4-(dimethylamino)piperidin-1-yl)methanone]
1000 to 10000 | Cc1cc(C2CN(c3c(Cl)cccc3Cl)C2)cc(C)c1CN1CCC(C(=O)N(C)CC(C)C)CC1 [Compound 23, 1-(4-(1-(2,6-dichlorophenyl)-azetidin-3-yl)-2,6-dimethyl-benzyl)-N-isobutyl-N-meth-ylpiperidine-4-carboxamide]
1000 to 10000 | Cc1cc(C2CN(c3c(Cl)cccc3Cl)C2)cc(C)c1CN1CCC(C(=O)N2CCC(O)C2)CC1 (centres unmarked) [Compound 24, (1-(4-(1-(2,6-dichlorophenyl)-azetidin-3-yl)-2,6-dimethyl-benzyl)-piperidin-4-yl)(3-hydroxypyrrolidin-1-yl)-methanone]
1000 to 10000 | Cc1cc(C2CN(c3c(Cl)cccc3Cl)C2)cc(C)c1CN1CCC(C(=O)N(C)C2CC2)CC1 [Compound 25, N-cyclopropyl-1-(4-(1-(2,6-dichlorophenyl)-azetidin-3-yl)-2,6-dimethylbenzyl)-N-methylpiperidine-4-carbox-amide]
1000 to 10000 | Cc1cc(C2CN(c3c(Cl)cccc3Cl)C2)cc(C)c1CN1CCC(C(=O)N2CCCCC2)CC1 [Compound 26, (1-(4-(1-(2,6-dichlorophenyl)-azetidin-3-yl)-2,6-dimethyl-benzyl)-piperidin-4-yl)(piper-idin-1-yl)methanone]
